Key:
[1] = target: ABC1 (Mus musculus, UniProt P41233); settings: Becq et al. 1997; Hamon et al. 1997; cited from earlier work
[2] = system: normal fibroblasts; test: Apo A-I-mediated cholesterol efflux from normal fibroblasts in the presence of ABC1 transport inhibitors; format: cell-based, human; settings: 6 hours; 5 μg/ml apo A-I; 0, 0.2 mM or 0.4 mM inhibitor
Protocol: To test whether inhibition of ABC1 could affect the process of apolipoprotein-mediated cholesterol efflux, two compounds reported to be ABC1 inhibitors were tested in assays which monitor apolipoprotein mediated cholesterol efflux. […] The apolipoprotein-mediated cholesterol efflux assays were performed as described in Example 1 with the noted changes. Cholesterol-loaded and [^3H]cholesterol-labeled normal fibroblasts (n=3) were incubated for 6 hours with or without 5 μg/ml apo A-1 and either 0, 0.2 mM, or 0.4 mM DIDS. In addition, cholesterol-loaded and [^3H]cholesterol-labeled normal fibroblasts (n=3) were incubated for 6 hours with or without 5 μg/ml apo A-I and either 0, 0.2 mM, or 0.4 mM BSP. […] The results are shown in FIG. 5 as the mean±SD (n=3) of efflux in the presence of apo A-I after subtraction of values for apo A-I-free medium. […] The results of these tests mimic the efflux defect in fibroblasts derived from patients with TD, described in Example 1.

[3] = system: ABC1 mRNA; test: ABC1 mRNA expression by RT-PCR in normal fibroblasts; format: cell-based, human
Protocol: (§1) To determine whether ABC1 plays a rate-limiting role in cellular sterol efflux, the synthesis of ABC1 was measured under various cellular conditions related to cholesterol efflux processes. Specifically, normal fibroblasts and TD fibroblasts were individually exposed to conditions of excess cAMP, cholesterol, or Apo A-I. Cell cultures of normal skin fibroblasts and TD1 and TD2 fibroblasts were prepared as described in Example 1. The level of ABC1 mRNA was measured by RT-PCR. Cell cultures: Immortalized cell cultures of normal skin fibroblasts and TD1 and TD2 fibroblasts were prepared as described in Example 1. Cells were grown to subconfluence in DMEM/10% FBS before replacement with DMEM/BSA and the indicated additive for 24 or 48 hours. RNA was prepared as described in Example 2. RT-PCR: Quantitative PCR was carried out using the GeneAmp 5700 Sequence Detection System (Perkin-Elmer Applied Biosystems, Foster City, Calif.). Briefly, 500 ng of DNase-treated mRNA was reverse transcribed using random hexamer primers at 2.5 μM. Approximately 5% of this reaction was amplified by PCR using the SYBR green core kit (PE Applied Biosystems, Foster City, Calif.; Cat. #4304886) and human ABC1 primers […] […] The mRNA in each sample was quantitated by detecting the increase in fluorescence caused by SYBR green binding to the double-stranded amplification product generated during each PCR cycle. […]

[4] = system: ABC1 protein; test: Cell-surface labeling and immunoprecipitation of ABC1 protein in normal and TD1 fibroblasts; format: cell-based, human; settings: serum deprivation and cholesterol-loading (30 μg/ml, 48 hours), normal and TD1 cells
Protocol: Cell-surface labeling and immunoprecipitation was used to determine whether increased expression of ABC1 protein in the plasma membrane is correlated with an increase in cholesterol efflux (FIG. 10). The relative amount of ABC1 on the cell surface was determined by cross-linking surface proteins on intact cells with the membrane-impermeable agent sulfo-NHS-biotin, followed by the steps of membrane solubilization, immunoprecipitation with ABC1 antibody, SDS-PAGE, and detection with streptavidin.
Both normal and TD1 cells were cultured under control conditions and conditions known to increase apolipoprotein-mediated cholesterol efflux (Oram, et al., J. Lip. Res., 40: 1769-1781 (1999)). […] Cholesterol-loaded cells were grown to confluence in DMEM/10% FBS and then incubated in DMEM/BSA for 48 hours with 30 μg/ml cholesterol plus 18 hours with no additives (cholesterol). […]
Detection of ABC1 Protein: The eluted biotinylated proteins were subjected to SDS-PAGE (6% gel; 150V, 5 hours) and transferred to nitrocellulose membrane (200 mA, 18 hours). The nitrocellulose was probed with streptavidin-horse radish peroxidase (Amersham Pharmacia, Piscataway, N.J.; Cat. #RPN 1231) diluted 300-fold and detected by enhanced chemiluminescence labeling (ECL) according to vendor's protocol (Amersham Pharmacia, Piscataway, N.J.). […]

[5] = system: RAW 264.7 cells; test: Apo A-I-mediated cholesterol efflux assay in cholesterol-loaded RAW 264.7 macrophage cells; format: cell-based, mouse; settings: apo A-I (20 μg/ml) and rolipram 50 μM
[6] = system: ABC1 mRNA; test: Apo A-I-mediated cholesterol efflux from normal skin fibroblasts loaded with antisense oligonucleotide; format: cell-based, human; settings: 30 μM oligonucleotide; apo A-I-mediated efflux after 12 hours
Protocol: Normal skin fibroblasts were labeled with [^3H]cholesterol as described in Example 1. The cells were then loaded with oligonucleotide by scraping in the presence of either 30 μM control Morpholino oligonucleotide (5′-[…]-3′ corresponding to the antisense complement of a β-globin thalassemic mRNA; SEQ ID NO: 52) or 30 μM ABC1 antisense Morpholino oligonucleotide (5′-[…]-3′; SEQ ID NO: 53) and reseeding on new dishes. Control cells were mock-loaded after [^3H]cholesterol-labeling by scraping and reseeding in the absence of oligonucleotide. […] The results are shown in FIG. 6 as the mean±SEM of three separate experiments, normalized to the value for apo A-I-specific efflux in the absence of oligonucleotide in each experiment.

[7] = system: TD fibroblasts; test: Cholesterol efflux from cholesterol-laden Tangier disease fibroblasts; format: cell-based, human; settings: albumin plus apo A-I 10 μg/ml
Protocol: (§2) Cell Cultures: Human fibroblasts were obtained from skin explants from two normal subjects (NL1) and three unrelated patients with Tangier disease ([…]). TD1 cells were obtained from a person with extremely low plasma HDL cholesterol and apo A-I levels and clinical symptoms typical of Tangier disease. […] TD3 cells were obtained from a person with Tangier disease who presented with orange tonsil remnants, asymmetrical motor neuropathy, plasma HDL cholesterol of 5 mg/dL, and LDL cholesterol of 16 mg/dL (Lawn et at., J. Clin. Invest., 104, R25-R31 (1999)). The normal cells and TD subject cells were immortalized as described in Oram et al., J. Lipid Res., 40: 1769-1781 (1999). Briefly, the cells were transfected with amphotropic retroviruses containing vectors with inserts of human papillomavirus 16 oncogenes E6 and E7 and a neomycin resistance selectable marker. Control cells were infected with vector alone (mock-infected). Pooled cell populations were selected in the presence of G418 for two passages, after which G418 was excluded from the medium. Fibroblasts were used between the fifth and sixteenth passage (primary) or sixth and fourteenth passage (immortalized). The immortalized normal and TD cells were seeded into 16-mm wells or 35-mm dishes and grown to confluence in Dulbecco's modified Eagle's medium (DMEM) plus 10% fetal bovine serum (FBS) before experimental use. […]

[8] = system: ABC1 mRNA; test: ABC1 mRNA expression by RT-PCR in Tangier disease (TD1, TD2) fibroblasts; format: cell-based, human; settings: 10 μg/ml apo A-I
Protocol: as §1

[9] = system: RAW 264.7 cells; test: Apo A-I-mediated cholesterol efflux assay in cholesterol-loaded RAW 264.7 macrophage cells; format: cell-based, mouse
Protocol: To determine whether ligands for nuclear receptors affect the process of apolipoprotein-mediated cholesterol efflux, various ligands were tested using the apo A-I-mediated cholesterol efflux assay described in Example 12. The nuclear receptor superfamily includes several members, such as the liver receptor LXR, the retinoid receptor RXR, and the peroxisome proliferator-activated receptor PPAR, which have been implicated in lipid metabolism (Russell. D. W., Cell, 97:539-542 (1999); Spiegelman, B. W., Cell, 93:153-155 (1998); Janowski et al., Nature, 383:728-731 (1996)). […] Using the above-described assay, 9 cis-retinoic acid (RXR ligand), oxysterol (LXR ligand), and fenfibrate (PPAR ligand) was tested to determine the effect on cholesterol efflux.
To determine whether eicosanoids affect the process of apolipoprotein-mediated cholesterol efflux, PGE1 and PG12 were tested using the apo A-I-mediated cholesterol efflux assay described in Example 12.

[10] = system: normal fibroblasts; test: Cholesterol efflux from cholesterol-laden normal fibroblasts; format: cell-based, human; settings: albumin plus apo A-I 10 μg/ml; up to 48 hours
Protocol: as §2

Sequence of ABC1 (P41233 whole entry): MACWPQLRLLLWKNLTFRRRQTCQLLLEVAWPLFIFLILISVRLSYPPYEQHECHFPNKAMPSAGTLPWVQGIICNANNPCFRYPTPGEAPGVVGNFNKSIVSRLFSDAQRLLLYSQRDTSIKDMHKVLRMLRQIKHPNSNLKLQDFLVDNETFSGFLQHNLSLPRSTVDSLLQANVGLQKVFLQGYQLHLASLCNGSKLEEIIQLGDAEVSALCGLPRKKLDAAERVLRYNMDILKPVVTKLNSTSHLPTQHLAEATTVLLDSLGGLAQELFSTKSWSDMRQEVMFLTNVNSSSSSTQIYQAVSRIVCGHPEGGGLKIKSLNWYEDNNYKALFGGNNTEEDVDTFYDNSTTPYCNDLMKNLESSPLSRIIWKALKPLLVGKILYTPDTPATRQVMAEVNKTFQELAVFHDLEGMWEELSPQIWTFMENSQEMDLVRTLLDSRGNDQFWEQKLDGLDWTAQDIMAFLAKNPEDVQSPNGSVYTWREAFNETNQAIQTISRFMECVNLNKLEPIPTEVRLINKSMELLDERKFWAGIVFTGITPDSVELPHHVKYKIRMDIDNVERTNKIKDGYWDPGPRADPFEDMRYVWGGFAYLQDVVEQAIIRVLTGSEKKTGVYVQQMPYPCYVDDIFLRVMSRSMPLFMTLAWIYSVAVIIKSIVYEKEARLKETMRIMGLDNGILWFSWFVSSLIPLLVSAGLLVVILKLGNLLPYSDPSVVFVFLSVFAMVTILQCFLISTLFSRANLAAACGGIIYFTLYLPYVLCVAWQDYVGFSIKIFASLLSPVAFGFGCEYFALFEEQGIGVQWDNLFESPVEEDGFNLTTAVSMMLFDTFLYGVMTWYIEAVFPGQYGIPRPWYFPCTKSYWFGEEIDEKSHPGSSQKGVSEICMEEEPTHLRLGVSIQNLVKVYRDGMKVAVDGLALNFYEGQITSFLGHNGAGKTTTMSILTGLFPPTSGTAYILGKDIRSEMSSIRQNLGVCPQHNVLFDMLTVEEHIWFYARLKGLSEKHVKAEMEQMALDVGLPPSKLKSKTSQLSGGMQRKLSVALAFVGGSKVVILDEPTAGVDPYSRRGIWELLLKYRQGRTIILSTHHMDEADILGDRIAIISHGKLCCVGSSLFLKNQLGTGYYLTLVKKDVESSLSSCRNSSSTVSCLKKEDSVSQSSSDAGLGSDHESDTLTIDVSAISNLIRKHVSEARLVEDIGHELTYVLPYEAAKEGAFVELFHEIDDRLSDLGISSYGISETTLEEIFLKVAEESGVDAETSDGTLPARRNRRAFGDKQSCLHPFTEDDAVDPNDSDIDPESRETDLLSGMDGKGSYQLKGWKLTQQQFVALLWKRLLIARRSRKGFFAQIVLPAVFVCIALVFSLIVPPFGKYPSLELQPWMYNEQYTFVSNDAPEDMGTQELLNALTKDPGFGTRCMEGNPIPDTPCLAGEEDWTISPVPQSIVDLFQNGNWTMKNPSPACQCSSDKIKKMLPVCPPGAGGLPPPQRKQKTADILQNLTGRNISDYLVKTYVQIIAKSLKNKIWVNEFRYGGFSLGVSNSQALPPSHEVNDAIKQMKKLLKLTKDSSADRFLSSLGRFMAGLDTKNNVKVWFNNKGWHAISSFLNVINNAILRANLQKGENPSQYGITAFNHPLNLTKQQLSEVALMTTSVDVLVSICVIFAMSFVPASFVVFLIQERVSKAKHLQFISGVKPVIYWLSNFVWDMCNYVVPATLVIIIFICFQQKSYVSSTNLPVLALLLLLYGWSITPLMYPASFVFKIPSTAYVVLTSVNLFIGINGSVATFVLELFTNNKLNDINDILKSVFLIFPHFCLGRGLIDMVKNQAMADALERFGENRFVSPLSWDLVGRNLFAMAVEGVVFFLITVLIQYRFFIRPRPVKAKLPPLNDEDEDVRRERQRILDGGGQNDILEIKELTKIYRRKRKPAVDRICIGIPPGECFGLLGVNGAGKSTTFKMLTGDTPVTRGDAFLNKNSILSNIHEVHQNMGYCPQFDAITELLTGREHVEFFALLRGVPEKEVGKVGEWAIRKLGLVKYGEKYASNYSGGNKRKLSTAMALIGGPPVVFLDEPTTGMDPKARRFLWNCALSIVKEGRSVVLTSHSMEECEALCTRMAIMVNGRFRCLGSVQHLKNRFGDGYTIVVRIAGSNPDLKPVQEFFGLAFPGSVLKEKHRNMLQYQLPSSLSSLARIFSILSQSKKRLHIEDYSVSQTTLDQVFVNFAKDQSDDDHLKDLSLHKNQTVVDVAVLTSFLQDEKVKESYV

**Q.** Which “anion transport activities of ABC1” value [1] does the source give for `O=C1OC(c2ccc(O)c(S(=O)(=O)O)c2)(c2ccc(O)c(S(=O)(=O)O)c2)c2c(Br)c(Br)c(Br)c(Br)c21` [BSP, sulphobromophthaleine] here?
**A.** inhibit anion transport activities of ABC1 in a dose-dependent fashion

**Q.** What about the “apo A-I-mediated efflux of tritiated cholesterol” value [2] of the same compound?
**A.** inhibited

**Q.** Which results are given for `CC(C)CCC[C@@H](C)[C@H]1CC[C@H]2[C@@H]3CC=C4C[C@@H](O)CC[C@]4(C)[C@H]3CC[C@]12C` [cholesterol]?
**A.** increase in ABC1 mRNA ([3]; 30 μg/ml free cholesterol, 48 hours, serum-free medium, normal fibroblasts): approximately 17 fold; cell-surface expression of ABC1 [4]: markedly increased

**Q.** With `COc1ccc(C2CNC(=O)C2)cc1OC1CCCC1` (stereo not shown) [rolipram] as the compound, how does the “cholesterol efflux (percentage of total radiolabeled cholesterol appearing in the medium)” value [5] read?
**A.** 17%

**Q.** For “ABC1 antisense Morpholino oligonucleotide: 5′-CATGTTGTTCATAGGGTGGGTAGCTC-3′; SEQ ID NO: 53 (all phosphorodiamidate morpholino (PMO))”, which “reduction in cholesterol efflux compared with control (β-globin) antisense oligonucleotide” value [6] is on record?
**A.** 50%

**Q.** Which results are given for “apo A-I: apolipoprotein cholesterol acceptor (Biodesign International)”?
**A.** efflux of [3H]-cholesterol [7]: little or no effect; change in ABC1 expression ([8]; cholesterol-loaded TD1 cells): did not alter ABC1 expression; change in ABC1 expression ([8]; cholesterol-loaded TD2 cells): slightly increased ABC1 expression; change in ABC1 mRNA expression ([3]; cholesterol-loaded normal fibroblasts then 10 μg/ml apo A-I): marked decrease; cholesterol efflux (percentage of total radiolabeled cholesterol appearing in the medium) ([9]; apo A-I only (20 μg/ml), control cells without apo A-I 3%): 5%; cholesterol efflux counts ([9]; control cells (apo A-I only)): 1890 c.p.m.; efflux of [3H]-cholesterol [10]: promoted the efflux
